Data set [1] in a line: Cytotoxicity counter-screening (MTT), HepG2. The note with it: human, HepG2 CC50, 48 h, MTT. Here is the method:
(§1) HepG2 and CHO cells were maintained at 37 °C, under a humidified atmosphere of 5% CO2, in DMEM high glucose media (Gibco) supplemented with 10% heat-inactivated FBS and 1% (v/v) Penicillin-Streptomycin antibiotics. […] The supernatant was discarded, and the cell pellet was resuspended in 1 mL DMEM media for cell counting by Trypan Blue. To determine the toxicity, cells were resuspended and seeded at a concentration of 1x10^4 cells/well in a 96-well plate and incubated for 24 h^[9,10]. Cells were treated in duplicate with a 10-fold serial dilution starting at 100 ug/mL of inhibitor in new media. After 48 h incubation, the viable cells were measured using the MTT tetrazolium reduction assay, where sterile 25 µL of a 5 mg/mL MTT was added to each well and incubated for 4 h before the […] formazan crystals were dissolved with 100 µL DMSO (Merck) per well. The absorbance, a measure of intracellular reduction of MTT, was measured at 540 nm (Multiskan GO). Emetine (50 µM) was included as a positive drug control, and the background was subtracted from all data before being normalised to the untreated^[9,10].
On the technique in general: A counterscreen serves to expose hits that act by an unwanted route or on another target.

Data set [2] deals with T1, recombinant PfPKG (Plasmodium falciparum, UniProt Q8I719).
T1 construct: Full-length PfPKG (PF3D7_1436600); His tag (N); made in house; host or cells: E. coli (first-named host, read as 'respectively')
T1 sequence (Q8I719 whole entry): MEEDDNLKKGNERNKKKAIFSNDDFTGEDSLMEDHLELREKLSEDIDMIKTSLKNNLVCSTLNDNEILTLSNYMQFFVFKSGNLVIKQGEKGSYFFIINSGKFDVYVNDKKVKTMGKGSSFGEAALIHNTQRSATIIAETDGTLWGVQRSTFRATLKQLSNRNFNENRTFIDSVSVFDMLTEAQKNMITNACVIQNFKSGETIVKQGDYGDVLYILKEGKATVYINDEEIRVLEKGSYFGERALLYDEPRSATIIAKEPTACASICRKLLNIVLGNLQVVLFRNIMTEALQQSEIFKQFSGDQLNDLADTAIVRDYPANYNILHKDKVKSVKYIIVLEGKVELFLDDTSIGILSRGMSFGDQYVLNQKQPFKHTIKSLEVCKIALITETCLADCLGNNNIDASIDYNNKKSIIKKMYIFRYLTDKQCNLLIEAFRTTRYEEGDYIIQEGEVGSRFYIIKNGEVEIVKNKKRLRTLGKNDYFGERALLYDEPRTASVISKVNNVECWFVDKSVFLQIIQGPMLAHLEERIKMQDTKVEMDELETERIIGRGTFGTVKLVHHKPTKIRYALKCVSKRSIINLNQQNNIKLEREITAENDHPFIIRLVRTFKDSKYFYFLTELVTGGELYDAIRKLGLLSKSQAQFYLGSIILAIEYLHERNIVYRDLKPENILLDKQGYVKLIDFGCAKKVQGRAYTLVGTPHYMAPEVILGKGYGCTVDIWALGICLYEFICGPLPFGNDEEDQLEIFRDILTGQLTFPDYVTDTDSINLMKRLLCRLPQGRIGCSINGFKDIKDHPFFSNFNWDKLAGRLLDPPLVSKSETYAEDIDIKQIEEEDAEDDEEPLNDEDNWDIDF
Description: ADP-Glo kinase assay, PfPKG. It is filed as biochemical. The text has this: (§2) Full-length PfPKG (PF3D7_1436600)^[19] and PvPI4Kβ (PVX_098050)^[20] recombinant proteins were expressed in E. coli and baculovirus-insect cell expression systems. The kinase domain of PfCLK3 (PF3D7_1114700, Gln317 to Ser694) was expressed in E. coli Rosetta™(DE3)pLysS cells (kind gift from Rafael M. Couñago, CQMED, University of Campinas). Briefly, the N-terminal His-tagged kinases were purified using immobilized metal affinity chromatography, followed by anion exchange chromatography in the case of PfPKG, and size exclusion chromatography. Dose-response kinase inhibition assays were carried out using the ADP-Glo kinase assay kit^[21], with 1 nM PfPKG, 10 μM ATP, 20 μM […]-NH2, 1% (v/v) DMSO and inhibitor in PKG assay buffer (25 mM HEPES pH 7.4, 0.1 mg/mL BSA, 0.01% (v/v) Triton-X 100, 20 mM MgCl2, 2 mM DTT, 10 μM cGMP); or 6 nM PvPI4Kβ, 10 μM ATP, 0.1 mg/ml L-alpha-phosphatidylinositol, 1% (v/v) DMSO and inhibitor in PI4Kβ assay buffer (25 mM HEPES pH 7.4, 100 mM NaCl, 3 mM MgCl2, 1 mM DTT, 0.025 mg/ml BSA, 0.2% (v/v) Triton-X-100); or 15 nM PfCLK3, 10 μM ATP, 20 μM myelin basic protein, 1% (v/v) DMSO and inhibitor in assay buffer (50 mM HEPES pH 7.4, 0.1 mg/mL BSA, 0.01% (v/v) Triton-X 100, 20 mM MgCl2, 2 mM DTT). […] Mean IC50 values were calculated from two independent experiments, each with technical duplicates.
For orientation: In ADP-Glo the light output rises with the ADP produced.

Data set [3] is described as follows: Cytotoxicity counter-screening (MTT), CHO. The note with it: Chinese hamster. Here is the method: as §1
The target in data set [4] is T2, recombinant PfCLK3 kinase domain (Plasmodium falciparum, UniProt Q8IIL5).
T2 sequence (Q8IIL5 317-694): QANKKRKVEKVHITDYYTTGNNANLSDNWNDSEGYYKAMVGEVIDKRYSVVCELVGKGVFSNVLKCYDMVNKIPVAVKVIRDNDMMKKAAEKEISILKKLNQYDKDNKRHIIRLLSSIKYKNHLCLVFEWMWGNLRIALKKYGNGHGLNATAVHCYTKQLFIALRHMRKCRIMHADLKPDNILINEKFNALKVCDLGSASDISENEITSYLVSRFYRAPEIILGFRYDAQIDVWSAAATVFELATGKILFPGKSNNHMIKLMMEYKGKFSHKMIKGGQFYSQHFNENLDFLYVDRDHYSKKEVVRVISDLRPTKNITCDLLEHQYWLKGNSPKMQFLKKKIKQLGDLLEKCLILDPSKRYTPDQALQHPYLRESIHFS
Put plainly: ADP-Glo kinase assay, PfCLK3. It is filed as biochemical.
Description: as §2

Data set [5] relates to multidrug-resistant PfDd2 ABS parasites. Put plainly: SYBR Green I proliferation assay, PfDd2 asexual blood stages. It is filed as cell-based. The note with it: Plasmodium falciparum, DD2, read-out: Pf Dd2 ABS IC50. Here is the method: (B) Antiplasmodial activity of nine anticancer aurora kinase inhibitors (selected based on their PfNF54 ABS activity) against P. falciparum multidrug-resistant ABS parasites (PfDd2 and PfK1). (C) Kinobead competitive inhibition data.
(§3) P. falciparum drug sensitive NF54 (PfNF54) and drug-resistant Dd2 (PfDd2, chloroquine, pyrimethamine and mefloquine resistant) strains were cultured in vitro in human O^+/A^+ erythrocytes (5% hematocrit) in complete medium at 2–5% parasitemia, 37 °C, shaking at 60 rpm under hypoxic conditions (90% N2, 5% O2 and 5% CO2). Immature and mature gametocytes were produced from P. falciparum 3D7elo1-pfs16-CBG99 (kind gift from Pietro Alano, ISS, Italy) ^[1] as described^[2,3] by simultaneously applying nutrient starvation and decreasing hematocrit to induce >97% ring-stage ABS parasites (0.5% parasitemia, 6% hematocrit). Gametocytogenesis was followed with daily media changes (including glucose) and ABS parasites removed with 50 mM N-acetylglucosamine (day 1–4 for stage II/III; days 3–7 for stage IV/V).
(§4) All inhibitors were dissolved in dimethyl sulfoxide (DMSO). Antiplasmodium activity of selected anti-cancer inhibitors was determined on P. falciparum NF54 and Dd2 strains, measuring SYBR Green I fluorescence (485 nm excitation, 538 nm emission) as an indicator of proliferation^[4]. Ring-stage ABS parasites (1% parasitemia, 1% hematocrit) were treated with compounds for 96 h at 37 °C with chloroquine disulphate (0.5 μM) as positive drug control. The activity of the inhibitors was tested against immature (>95% stage II/III) and late-stage (>90% stage IV/V) gametocytes using a luciferase reporter assay on 3D7elo1-pfs16-CBG99 ^[1]. […] Luciferase activity was determined using a non-lysing D-luciferin substrate (1 mM in 0.1 M citrate buffer, pH 5.5, 100 μL) and bioluminescence was detected with a GloMax® - Multi Detection System with Instinct® software.

Data set [6] deals with immature (stage II/III) gametocytes, P. falciparum 3D7elo1-pfs16-CBG99. Description: Luciferase reporter assay, immature gametocytes. The note with it: 48 h; for inhibition at 5 µM: Plasmodium falciparum, read-out: Pf Early stage gametocyte %inhibition @ 5 µM. The class given is cell-based, Plasmodium falciparum. Here is the method: as §3, §4
In general terms: In a reporter assay the amount or activity of a reporter protein is the signal.

Data set [7] addresses recombinant PvPI4Kβ (Plasmodium vivax, UniProt A5KB26). Put plainly: ADP-Glo kinase assay, PvPI4Kβ. The class given is biochemical.
Description: as §2

Where [8] appears, read: 10 µM ATP, read-out: IC50 PfCLK3.
The mark [9] stands for this setting: 10 µM ATP, read-out: IC50 PvPI4Kβ.

Read-outs that look alike come from different tables or passages of the source.

This note sets out measurements from article PMC12707362, “Targeting Aurora Kinases as Essential Cell‐Cycle Regulators to Deliver Multi‐Stage Antimalarials Against Plasmodium Falciparum” (Angewandte Chemie (International Ed. in English), 2025).

Chain of recombinant PvPI4Kβ (A5KB26 1-1525): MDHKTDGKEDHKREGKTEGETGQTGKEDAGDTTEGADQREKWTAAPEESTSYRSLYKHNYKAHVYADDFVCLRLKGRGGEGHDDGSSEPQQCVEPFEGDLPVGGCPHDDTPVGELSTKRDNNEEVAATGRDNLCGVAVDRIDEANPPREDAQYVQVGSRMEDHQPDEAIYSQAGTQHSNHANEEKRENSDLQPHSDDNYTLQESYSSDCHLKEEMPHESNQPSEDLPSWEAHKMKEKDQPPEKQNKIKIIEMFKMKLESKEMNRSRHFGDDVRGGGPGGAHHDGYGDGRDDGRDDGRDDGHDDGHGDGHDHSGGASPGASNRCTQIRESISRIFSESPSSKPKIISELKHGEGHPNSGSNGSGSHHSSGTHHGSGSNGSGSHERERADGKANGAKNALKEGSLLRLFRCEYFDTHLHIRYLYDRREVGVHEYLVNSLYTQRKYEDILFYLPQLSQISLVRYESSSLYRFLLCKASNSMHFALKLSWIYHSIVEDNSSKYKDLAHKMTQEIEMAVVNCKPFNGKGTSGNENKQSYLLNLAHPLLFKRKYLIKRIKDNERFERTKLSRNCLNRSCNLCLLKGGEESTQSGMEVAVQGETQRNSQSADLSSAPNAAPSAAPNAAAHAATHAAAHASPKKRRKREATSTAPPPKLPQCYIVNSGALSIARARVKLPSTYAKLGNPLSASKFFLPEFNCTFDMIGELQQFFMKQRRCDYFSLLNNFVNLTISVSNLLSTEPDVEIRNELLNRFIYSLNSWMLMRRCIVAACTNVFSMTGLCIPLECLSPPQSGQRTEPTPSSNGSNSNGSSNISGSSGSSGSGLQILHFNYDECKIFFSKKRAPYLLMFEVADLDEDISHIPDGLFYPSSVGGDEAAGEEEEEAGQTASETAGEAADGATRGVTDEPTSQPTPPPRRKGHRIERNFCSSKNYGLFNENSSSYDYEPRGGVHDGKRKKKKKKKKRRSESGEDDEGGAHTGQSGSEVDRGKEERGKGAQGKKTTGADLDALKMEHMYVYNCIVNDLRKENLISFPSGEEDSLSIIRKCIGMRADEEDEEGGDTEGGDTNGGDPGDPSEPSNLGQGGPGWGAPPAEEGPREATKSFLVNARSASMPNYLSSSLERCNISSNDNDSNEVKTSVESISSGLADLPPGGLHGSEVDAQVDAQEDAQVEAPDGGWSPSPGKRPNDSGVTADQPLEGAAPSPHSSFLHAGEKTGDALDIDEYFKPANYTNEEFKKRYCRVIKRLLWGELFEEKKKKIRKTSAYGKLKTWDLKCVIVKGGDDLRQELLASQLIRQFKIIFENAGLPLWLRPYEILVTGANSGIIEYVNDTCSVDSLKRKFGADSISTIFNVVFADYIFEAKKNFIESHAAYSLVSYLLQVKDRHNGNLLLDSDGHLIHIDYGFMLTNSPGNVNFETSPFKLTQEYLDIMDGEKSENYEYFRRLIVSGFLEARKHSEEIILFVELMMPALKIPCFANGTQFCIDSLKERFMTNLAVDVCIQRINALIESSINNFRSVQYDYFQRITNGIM

For the compound `O=C(Nc1cccc(Nc2nccc(Nc3cccc(C(F)(F)F)c3)n2)c1)C1CC1` [Aki III, Aurora kinase inhibitor III], the CC50 at 48 h was found to be 18.4 µM in data set [1] (HepG2 cells) and 2.4 µM in data set [3] (CHO cells). Also, the IC50 in data set [2] (10 µM ATP, read-out: IC50 PfPKG) was 2.7 µM; in data set [4], more than 10 µM; in data set [5], 1.6 µM; in data set [7], more than 10 µM. Further, in data set [6], the inhibition at 5 µM amounted to 27.7%.
Consider `CCN1CCN(C(=O)Cc2ccc(Nc3ncc(F)c(Nc4ccc(C(=O)Nc5ccccc5Cl)cc4)n3)cc2)CC1` [AAi I, Aurora A Inhibitor I], for which the CC50 at 48 h in data set [1] was 5.1 µM; in data set [3], 3.6 µM. Further, the IC50 is 1.7 µM in data set [2], 2.4 µM in data set [4] (setting [8]), 0.903 µM in data set [5] and more than 10 µM in data set [7] (setting [9]). Moreover, the “Pf Early stage gametocyte %inhibition @ 5 µM” value in data set [6] is reported as 73,0 ± 3,1%. For the same compound, the inhibition at 5 µM in data set [6] was approximately 70%.
In the case of `COc1cc2c(Nc3ccc(NC(=O)c4ccccc4)cc3)ncnc2cc1OCCCN1CCOCC1` [ZM-39, ZM-447439], the half-maximal cytotoxic concentration (CC50) at 48 h in data set [1] (HepG2 cells) and in data set [3] (CHO cells) was more than 15 µM throughout. The IC50 in data set [2] is more than 10 µM; in data set [4] (setting [8]) it was more than 10 µM; in data set [5], 0.374 µM; in data set [7] (setting [9]), more than 10 µM. In addition, the inhibition at 5 µM in data set [6] amounted to 32.7%.
For `COc1cc(N2CCC(N3CCN(C)CC3)CC2)ccc1Nc1ncc(Cl)c(Nc2ccccc2S(=O)(=O)C(C)C)n1` [TAE684, NVP-TAE684], the figures for the CC50 at 48 h in data set [1] and in data set [3] were 8.8 µM and 2 µM, respectively. Moreover, the IC50 was 2 µM in data set [2], more than 10 µM in data set [4] (setting [8]), 0.227 µM in data set [5] and more than 10 µM in data set [7] (setting [9]). For the same compound, the “Pf Early stage gametocyte %inhibition @ 5 µM” value in data set [6] is 65,4 ± 1,7%. The inhibition at 5 µM in data set [6] is approximately 70%.
`O=C(Nc1c[nH]nc1-c1nc2ccc(CN3CCOCC3)cc2[nH]1)NC1CC1` [AT83, AT9283]: the CC50 at 48 h came out at 12.9 ± 4.5 µM in data set [1] and 4.5 ± 2.1 µM in data set [3]. Also, the IC50 in data set [2] was 9.3 µM; in data set [4] (setting [8]) it was 0.1 µM; in data set [5], 0.105 µM; in data set [7] (setting [9]) it was more than 10 µM. Also, in data set [6], the inhibition at 5 µM is 53.5%.
On to `CCN(CCO)CCCOc1ccc2c(Nc3cc(CC(=O)Nc4cccc(F)c4)n[nH]3)ncnc2c1` [AZD-1152, AZD-1152-HQPA], for which the CC50 at 48 h in data set [1] and in data set [3] was more than 15 µM throughout. For the same compound, the IC50 in data set [2] was more than 10 µM; in data set [4] (setting [8]), more than 10 µM; in data set [5] it was 0.49 µM; in data set [7] (setting [9]), more than 10 µM. Moreover, in data set [6], the inhibition at 5 µM is 31.1%.

What is called CC50 is the concentration at which the toxic effect on the cells reaches its halfway point. One may read the IC50 as the concentration that inhibits the measured activity by half. A word on the inhibition: it is the percentage by which the read-out fell short of the control.
